Assay [1] has as its system S. aureus ATCC 12598 biofilm. Format: cell-based, Staphylococcus aureus. The note with it: ATCC 12598, 24 h. On the procedure:
(§1) The MBECs values were determined according to the method reported previously. Briefly, 24-h cultures of S. aureus, namely: S. aureus ATCC 25923, S. aureus ATCC 6538, S. aureus ATCC 33591 (MRSA), S. aureus ATCC 9144 and S. aureus ATCC 12598 were diluted to a concentration of 0.5 × 10^7 CFU/mL and added to the test wells of polystyrene microdilution flat-bottom plates. After 24-h of incubation at 37 °C, the wells were rinsed three times with PBS to remove non-adherent cells. Subsequently, 100 μL of the test compounds over a concentration range 0.5–256 µg/mL were added to each well and incubated again for 24 h at 37 °C. After this period, 20 μL of the resazurin (7-hydroxy-3H-phenoxazin-3-one-10-oxide, 4 mg/mL) solution was added to each well. After 1 h of incubation, the MBECs were read out. The determined values were recorded as the lowest concentration at which the reduction of resazurin (from blue to pink) was lower or equal to 10 ± 0.5% as compared to the positive (100%) and negative (0%) controls. All experiments were performed in triplicate.

Assay [2] deals with S. aureus ATCC 25923 biofilm. It is filed as cell-based, Staphylococcus aureus. The note with it: ATCC 25923, 24 h. How it is done:
as §1

The test system of assay [3] is S. aureus ATCC 9144 biofilm. It is filed as cell-based, Staphylococcus aureus. Conditions: ATCC 9144, 24 h. On the procedure: as §1
Assay [4] has as its system S. aureus ATCC 6538 biofilm. It is filed as cell-based, Staphylococcus aureus. Conditions: ATCC 6538, 24 h. How it is done:
as §1

For assay [5], the system named is S. aureus ATCC 33591 (MRSA) biofilm. It is filed as cell-based, Staphylococcus aureus. The note with it: ATCC 33591, 24 h. How it is done:
as §1

For assay [6], the system named is human keratinocytes (HaCaT). Format: cell-based. Conditions: 24 h. How it is done:
The cytotoxicity of test compounds (IC50) was evaluated for human keratinocytes (HaCaT, ATCC) using classic MTT assay on 96-well plates. In this assay, a colorimetric determination of the cell metabolic activity was carried out. Specifically, the color intensity reflects the number of live cells that can be measured spectrophotometrically. […] A day after plating 500 cells per well, a series of concentrations (0.5–500 μg/mL) of the test compounds were added. Dimethyl sulfoxide (DMSO) was used as a control in cells at a final concentration of 1.0% (v/v), which was related to the maximal concentration of the solvent compounds used in the experiment. After 24 h of incubation with test compounds, a medium containing 1 mg/mL of MTT was added up to a final concentration of 0.5 mg/mL and subsequently incubated at 37 °C for 4 h. Then, the medium was aspirated and the formazan product was solubilized with DMSO. The background absorbance at 630 nm was subtracted from that at 570 nm for each well (Epoch, BioTek Instruments, Winooski, VT, USA). Six replicates were conducted for each concentration. All experiments were repeated at least twice and the resulting IC50 values were calculated with a GraFit 7 software (v. 7.0, Erithacus, Berkley, CA, USA).

Assay [7] relates to S. aureus ATCC 33591 (MRSA). Format: cell-based, Staphylococcus aureus. The note with it: ATCC 33591, 18 h. How it is done: (§2) Examination of antimicrobial activity of the test compounds was conducted on reference strains of bacteria assigned to ESKAPE group of pathogens: Enterococcus faecium ATCC 700221, Klebsiella pneumoniae ATCC 700603, Acinetobacter baumannii ATCC BAA-1605, Pseudomonas aeruginosa ATCC 9027, Klebsiella aerogenes ATCC 13048 (formerly Enterobacter aerogenes) and reference strains of Staphylococcus aureus, namely: S. aureus ATCC 25923, S. aureus ATCC 6538, S. aureus ATCC 33591 (MRSA), S. aureus ATCC 9144 and S. aureus ATCC 12598. All the strains were stored at −80 °C in Roti®-Store cryo vials (Carl Roth GmbH, Karlsruhe, Germany) and before the tests were transferred into fresh Mueller-Hinton Medium (BioMaxima, Lublin, Poland) and incubated for 24 h at 37 °C. Subsequently, each bacterial inoculum was seeded on Mueller-Hinton Agar plates (BioMaxima) and incubated again for 24 h. The cultures prepared in this way were used in further antimicrobial assays and prepared as described above. The MIC values were determined by the broth microdilution method according to Clinical and Laboratory Standards Institute Protocol. For this purpose, initial inoculums of bacteria (0.5 × 10^5 colony forming unit (CFU)/mL) in Mueller–Hinton Broth were exposed to the ranging concentrations of compounds (0.5–256 µg/mL) and incubated for 18 h at 37 °C. The experiments were conducted on 96-well microtiter plates, with a final volume of 100 µL. Cell densities were adjusted spectrophotometrically (Multiskan™ GO Microplate Spectrophotometer, Thermo Scientific) at 600 nm. The MICs were taken as the lowest drug concentration at which a visible growth of microorganisms was inhibited. All experiments were conducted in triplicate and included positive (growth) and negative (sterility) controls.

A further assay deals with S. aureus ATCC 6538. Format: cell-based, Staphylococcus aureus. Conditions: ATCC 6538, 18 h. On the procedure:
as §2

A further assay relates to S. aureus ATCC 9144. It is filed as cell-based, Staphylococcus aureus. Conditions: ATCC 9144, 18 h. How it is done:
as §2

For a further assay, the system named is S. aureus ATCC 25923. Format: cell-based, Staphylococcus aureus. The note with it: ATCC 25923, 18 h. On the procedure: as §2
The next assay relates to S. aureus ATCC 12598. It is filed as cell-based, Staphylococcus aureus. Conditions: ATCC 12598, 18 h. On the procedure:
as §2

Another assay concerns P. aeruginosa ATCC 9027. Format: cell-based, Pseudomonas aeruginosa. The note with it: ATCC 9027, 18 h. On the procedure:
as §2

Assay [8] deals with reference strains of S. aureus. It is filed as cell-based, Staphylococcus aureus. Conditions: reference strains of, 24 h. On the procedure: as §2, with “For this purpose, initial inoculums of bacteria (0.5 × 10^5 colony forming unit (CFU)/mL) in Mueller–Hinton Broth were exposed to the ranging concentrations of compounds (0.5–256 µg/mL) and incubated for 18 h at 37 °C.” left out

The test system of assay [9] is A. baumannii ATCC BAA-1605. It is filed as cell-based, Acinetobacter baumannii. The note with it: ATCC BAA-1605, 18 h. On the procedure: as §2
In a further assay the test system is E. faecium ATCC 700221. It is filed as cell-based, Enterococcus faecium. Conditions: ATCC 700221, 18 h. On the procedure:
as §2

Assay [10] concerns K. pneumoniae ATCC 700603. Format: cell-based, Klebsiella pneumoniae. Conditions: ATCC 700603, 18 h. On the procedure:
as §2

The test system of another assay is K. aerogenes ATCC 13048. Format: cell-based, Klebsiella aerogenes. Conditions: ATCC 13048, 18 h. On the procedure:
as §2

Converted amounts (≈) assume the structure as drawn. Peptide text beside a SMILES is read from it. * marks the point of attachment. Myristoyl = CCCCCCCCCCCCCC(=O)*; Lauroyl = CCCCCCCCCCCC(=O)*; Decanoyl = CCCCCCCCCC(=O)* Bounds are passed on as bounds.

On to `CCCCCCCCCCCC(=O)N[C@@H](CCCCN)C(=O)N[C@@H](CCCNC(=N)N)C(=O)N[C@H](C(=O)N[C@H](C(=O)N[C@@H](CCC(N)=O)C(=O)N[C@@H](CCCNC(=N)N)C(=O)N[C@H](C(=O)N[C@@H](CCCCN)C(=O)N[C@@H](CC(=O)O)C(=O)N[C@@H](Cc1ccccc1)C(=O)N[C@@H](CC(C)C)C(=O)N[C@@H](CCCNC(=N)N)C(N)=O)[C@@H](C)CC)C(C)C)[C@@H](C)CC` [VI, C12-KR12-NH2] (Lauroyl-KRIVQRIKDFLR-NH2), for which the MBEC in assay [1] turned out to be 32 µg/mL; in [2] it was 256 µg/mL; in assay [3], 64 µg/mL; in [4] it was 256 µg/mL; in [5], 128 µg/mL. This molecule also had an IC50 in assay [6] of 7.60 µg/mL (≈ 4.33 µM). Besides, the MIC turned out to be 16 µg/mL (≈ 9.13 µM) in [7]; 32 µg/mL (≈ 18.3 µM) against S. aureus ATCC 6538; 32 µg/mL (≈ 18.3 µM) with S. aureus ATCC 9144; 32 µg/mL (≈ 18.3 µM) in the assay on S. aureus ATCC 25923; 32 µg/mL (≈ 18.3 µM) in the assay with S. aureus ATCC 12598; 32 µg/mL (≈ 18.3 µM) with P. aeruginosa ATCC 9027. For the same molecule, the MIC is reported as 16 µg/mL (≈ 9.13 µM) in assay [9], 4 µg/mL (≈ 2.28 µM) in the assay with E. faecium ATCC 700221, 32 µg/mL (≈ 18.3 µM) in [10] and 32 µg/mL (≈ 18.3 µM) against K. aerogenes ATCC 13048. Also, the “GM (geometric mean of the MIC values against S. aureus)” value (from here on “GM”) in assay [8] came to 27.86 µg/mL.
As for `CCCCCCCCCCCCCC(=O)N[C@@H](CCCCN)C(=O)N[C@@H](CCCNC(=N)N)C(=O)N[C@H](C(=O)N[C@H](C(=O)N[C@@H](CCC(N)=O)C(=O)N[C@@H](CCCNC(=N)N)C(=O)N[C@H](C(=O)N[C@@H](CCCCN)C(=O)N[C@@H](CC(=O)O)C(=O)N[C@@H](Cc1ccccc1)C(=O)N[C@@H](CC(C)C)C(=O)N[C@@H](CCCNC(=N)N)C(N)=O)[C@@H](C)CC)C(C)C)[C@@H](C)CC` [VII, C14-KR12-NH2] (Myristoyl-KRIVQRIKDFLR-NH2), the MBEC is listed as 64 µg/mL in [1]; 256 µg/mL in [2]; 128 µg/mL in assay [3]; 256 µg/mL in [4]; 256 µg/mL in assay [5]. In addition, the IC50 in assay [6] was 1.29 µg/mL (≈ 0.724 µM). In addition, the MIC stood at 16 µg/mL (≈ 8.98 µM) in assay [7]; 64 µg/mL (≈ 35.9 µM) with S. aureus ATCC 6538; 64 µg/mL (≈ 35.9 µM) in the assay on S. aureus ATCC 9144; 128 µg/mL (≈ 71.9 µM) in the assay with S. aureus ATCC 25923; 128 µg/mL (≈ 71.9 µM) against S. aureus ATCC 12598; 128 µg/mL (≈ 71.9 µM) in the assay with P. aeruginosa ATCC 9027. The MIC was determined as 32 µg/mL (≈ 18 µM) in assay [9], 8 µg/mL (≈ 4.49 µM) in the assay with E. faecium ATCC 700221, 64 µg/mL (≈ 35.9 µM) in assay [10] and 128 µg/mL (≈ 71.9 µM) in the assay on K. aerogenes ATCC 13048. Moreover, the “GM” value in assay [8] amounted to 64.00 µg/mL.
Turning to `CCCCCCCCCC(=O)N[C@@H](CCCCN)C(=O)N[C@@H](CCCNC(=N)N)C(=O)N[C@H](C(=O)N[C@H](C(=O)N[C@@H](CCC(N)=O)C(=O)N[C@@H](CCCNC(=N)N)C(=O)N[C@H](C(=O)N[C@@H](CCCCN)C(=O)N[C@@H](CC(=O)O)C(=O)N[C@@H](Cc1ccccc1)C(=O)N[C@@H](CC(C)C)C(=O)N[C@@H](CCCNC(=N)N)C(N)=O)[C@@H](C)CC)C(C)C)[C@@H](C)CC` [V, C10-KR12-NH2] (Decanoyl-KRIVQRIKDFLR-NH2), the MBEC in assay [1] is given as 8 µg/mL; in [2], 32 µg/mL; in assay [3], 16 µg/mL; in assay [4], 32 µg/mL; in [5], 32 µg/mL. The molecule also displayed a 50% inhibitory concentration (IC50) in [6] of 5.97 µg/mL (≈ 3.46 µM). Moreover, the MIC was found to be 4 µg/mL (≈ 2.32 µM) in [7]; 4 µg/mL (≈ 2.32 µM) against S. aureus ATCC 6538; 4 µg/mL (≈ 2.32 µM) against S. aureus ATCC 9144; 4 µg/mL (≈ 2.32 µM) against S. aureus ATCC 25923; 4 µg/mL (≈ 2.32 µM) with S. aureus ATCC 12598; 8 µg/mL (≈ 4.64 µM) against P. aeruginosa ATCC 9027. Besides, the MIC in assay [9] amounted to 8 µg/mL (≈ 4.64 µM); in the assay on E. faecium ATCC 700221, 2 µg/mL (≈ 1.16 µM); in assay [10], 16 µg/mL (≈ 9.27 µM); with K. aerogenes ATCC 13048 it was 16 µg/mL (≈ 9.27 µM). Moreover, in assay [8], the “GM” value amounted to 4.00 µg/mL.
Take “Ac-KRIVQRIKDFLR-NH2 [I, Ac-KR12-NH2 (C2-KR12-NH2)]”: the MBEC in assay [1], in assay [2], in assay [3], in assay [4] and in assay [5] was greater than 256 µg/mL in each case. This molecule gave an IC50 in assay [6] of 84.20 µg/mL. Further, the MIC in [7] was greater than 256 µg/mL; in the assay with S. aureus ATCC 6538, 256 µg/mL; against S. aureus ATCC 9144 it was greater than 256 µg/mL; in the assay with S. aureus ATCC 25923, greater than 256 µg/mL; against S. aureus ATCC 12598, greater than 256 µg/mL; with P. aeruginosa ATCC 9027, 64 µg/mL. For the same molecule, the MIC is greater than 256 µg/mL in assay [9], 16 µg/mL in the assay on E. faecium ATCC 700221, greater than 256 µg/mL in [10] and greater than 256 µg/mL against K. aerogenes ATCC 13048. Also, in assay [8], the “GM” value was greater than 256.00 µg/mL.

One may read the IC50 as the concentration needed to halve the response being measured. Low readings indicate greater potency, high ones weaker potency. Usually MIC stands for the least concentration at which growth counts as inhibited. High values mean a need for much substance, low ones inhibition by little substance.

Source of the values: article PMC7036753, “Lipidated Analogs of the LL-37-Derived Peptide Fragment KR12—Structural Analysis, Surface-Active Properties and Antimicrobial Activity” (International Journal of Molecular Sciences, 2020).
